Measurements as given in patent US20040014142A1, “Differential diagnosis of neurodegeneration” (INNOGENETICS N.V., priority 1998, published 2004).

What was measured:
mice = test: Titer after immunization of mice with α-synuclein (coating ELISA); assay type: in vivo
Protocol: Alpha-synuclein was purified from 3 liters of induced E. coli cultures resulting in purification of more than 10 mg α-synuclein (more than 90% pure estimated from coumassie and silverstained gels). The protein was injected into mice following several immunization schemes (Table 3). After 4 injections the titer to α-synuclein was evaluated in a coating ELISA.

tau = settings: in vivo
Protocol: Total tau was measured with the tau antigen test, using AT120 as capturing antibody and biotinylated HT7-BT2 as detector antibody (INNOTEST hTau antigen, Innogenetics, Gent, Belgium).
All patients underwent a thoroughly clinical evaluation at the time of diagnosis. Parental informed consent was available.
(§1) Lumbar punctures were performed for routine analysis either at baseline for diagnostic work-up or just prior to the IT administration of chemotherapy. Five ml of CSF was collected in different polypropylene tubes. One sample was centrifuged immediately at 1500 rpm for 2 minutes to eliminate cells and other insoluble material. The supernatant was stored at −70° C. for subsequent analysis. The number of freeze/thaw cycles was restricted to a minimum. Routine CSF measurement included cytology, protein concentration, glucose, etc.

neuromodulin = test: CSF neuromodulin level after chemotherapy of children (sandwich ELISA NM2/NM4); assay type: in vivo, human; settings: child with manifest neurotoxicity and diplegia after MTX; exceeded highest standard
Protocol: Neuromodulin was also measured with a sandwich-type ELISA, using two epitope-specific monoclonal antibodies (NM2, NM4; Oestreicher et al., 1994). NM2 was selected as capturing antibody, biotinylated NM4 as detector antibody. Recombinant neuromodulin was used as standard.
as §1

[1] = animal 309 (m2), 1°: 50 μg α-synuclein, 2°: 5 μg peptide (IGP1463)

Row | Compound | Estimated titer in direct coating (mice; animal 308 (m4), 50 μg protein) | Estimated titer in direct coating (mice; [1]) | titer on peptide (mice; [1]) | Estimated titer in direct coating (mice; animal 309 (m4), 1°: 50 μg α-synuclein, 2°: 5 μg peptide (IGP1463)) | Estimated titer in direct coating (mice; animal 312 (m2), 5 μg α-synuclein protein) | Estimated titer in direct coating (mice; animal 312 (m3), 5 μg α-synuclein protein) | Estimated titer in direct coating (mice; animal 313 (m2), 1°: 50 μg protein, 2°: 5 μg protein) | titer to α-synuclein (serum dilution resulting in OD value twice the background) (mice; six mice, after 4 injections) | CSF tau level (tau) | CSF neuromodulin level (neuromodulin)
1 | α-synuclein | 250000 | 512000 | (titer of 2000 on peptide) | 128000 | 100000 | >512000 | 2500000 | above 100000 | – | –
2 | CN(Cc1cnc2nc(N)nc(N)c2n1)c1ccc(C(=O)N[C@@H](CCC(=O)O)C(=O)O)cc1 [MTX, methotrexate] | – | – | – | – | – | – | – | – | > 1500 pg/mL | > 8000 pg/mL
